The source of these data is US6362166B1, “Antipicornaviral compounds and methods for their use and preparation” (Agouron Pharmaceuticals, Inc., priority 1996, dated 2002).

Molecules are shown by their SMILES. Read-outs that look alike come from different tables or passages of the source.

Series [1] has as its target T1, Recombinant Rhinovirus 3C protease (RVP) serotype-14 (Human rhinovirus 14, UniProt P03303).
T1 construct: Recombinant Rhinovirus 3C proteases from serotypes 14, 16, 2 or 89; made in house
Kind of series: Inhibition of Rhinovirus Protease (fluorescence resonance energy transfer assay), serotype 14. The class given is biochemical, human rhinovirus (HRV).

Series [2] addresses T2, Recombinant Rhinovirus 3C protease (RVP) serotype 2 (Human rhinovirus 2, UniProt P04936).
T2 construct: Recombinant Rhinovirus 3C proteases from serotypes 14, 16, 2 or 89; made in house
Nature of the series: Inhibition of Rhinovirus Protease (fluorescence resonance energy transfer assay), serotype 2. The class given is biochemical, human rhinovirus (HRV). As for the experimental part: (§1) Stock solution (50 mM, in DMSO) of various compounds were prepared; dilutions were in the same solvent. Recombinant Rhinovirus 3C proteases from serotypes 14, 16, 2 or 89 were prepared by the following standard chromatographic procedures: (1) ion exchange using Q Sepharose Fast Flow from Pharmacia; (2) affinity chromatography using Affi-Gel Blue from Biorad; and (3) sizing using Sephadex G-100 from Pharmacia. Assays contained 2% DMSO, 50 mM tris pH 7.6, 1 mM EDTA, a compound at the indicated concentrations, approximately 1 μM substrate, and 50-100 nM protease. […] The kobs/I values were obtained from reactions initiated by addition of enzyme rather than substrate. RVP activity is measured in the fluorescence resonance energy transfer assay. The substrate was (N-terminal) DABCYL-([…]Gyl)-EDANS. In the uncleaved peptide, the EDANS fluorescence was quenched by the proximal DABCYL moeity. When the peptide was cleaved, the quenching was relieved, and activity was measured as an increase in fluorescence signal.
(§2) In the above table, all data is RVP serotype-14 unless otherwise noted in parentheses. All strains of human rhinovirus (HRV) were purchased from American Type Culture Collection (ATCC), except for serotype 14, which was produced from the infectious cDNA clone constructed and supplied to us by Dr. Roland Rueckert at the Institute for Molecular Virology, University of Wisconsin, Madison, Wisc. […] The data in the column designated kobs/I was measured from progress curves in enzyme start experiments.

Series [3] has as its target T3, Recombinant Rhinovirus 3C protease (RVP) serotype 89 (Human rhinovirus A serotype 89, UniProt P07210).
T3 construct: Recombinant Rhinovirus 3C proteases from serotypes 14, 16, 2 or 89; made in house
Nature of the series: Inhibition of Rhinovirus Protease (fluorescence resonance energy transfer assay), serotype 89. It counts as biochemical, human rhinovirus (HRV). As for the experimental part:
as §1
In the above table, all data is RVP serotype-14 unless otherwise noted in parentheses. […] The data in the column designated kobs/I was measured from progress curves in enzyme start experiments.

A further series deals with HRV-14. Nature of the series: Antirhinoviral HI-HeLa Cell Culture Assay (Cell Protection Assay, XTT dye reduction). The settings on record: HI-HeLa cells infected with HRV-14, m.o.i. 0.13, two days, XTT, read-out: EC50. The class given is cell-based, human rhinovirus (HRV) serotype-14. An outline of the steps:
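Protection measured via XTT dye reduction (450/650 nm) two days after compound treatment of HI-HeLa cells, mock-infected or infected with cDNA-derived HRV-14 at m.o.i. 0.13. CC50 divided by EC50 gives the therapeutic index.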
For orientation: Tetrazolium assays rely on reduction of a dye to a coloured formazan, in cell work by metabolically active cells.

Series [4] relates to HI-HeLa cells. Nature of the series: Cytotoxicity in mock-infected HI-HeLa cells (antirhinoviral assay, XTT). The class given is cell-based.
Series [5] has as its system Human Rhinovirus-serotype 10 (HRV-10). Nature of the series: Normal Human Bronchial Epithelial Cell Assay (MTT). It counts as cell-based. The following applies: normal human bronchial cells, HRV-10 at m.o.i. 10, 3-4 days at 34° C., read-out: ED50 (the source's name). As to the method: Normal human bronchial cells were obtained from cadavers and cultured. The cells were plated at 2×10^4 per well in a […] plate. They were allowed to adhere and grow for 24 hours in 200 μL of serum-free bronchial/tracheal epithelial cell growth medium at 37° C. with 5% CO2. Human Rhinovirus-serotype 10 (HRV-10) was purchased from American Type Culture Collection (ATCC). To start the assay, the supernatant was removed, and HRV-10 at an m.o.i. of 10 (virus particles/cell) was added to each well along with the appropriate amount of compound of formula I or II. The plate was then incubated at 34° C. After 3 hours the supernatant was removed, and 200 μL of media was added along with the same concentration of compound as used in the beginning of the assay. The plates were incubated for 3-4 days at 34° C. To determine the amount of cell growth, an MTT assay (0.5 mgs/mL), as described in Mosmann, T. J. J. Immunol. Methods 1983, 65, 55-63, which is incorporated herein by reference, was performed on the cells, and the plate was read at an optical density of 540 nm. The compounds were tested against control compound Pirodavir, obtained from Janssen Pharmaceuticals. The EC50 was measured as described above for the HI-HeLa Cell Culture Assay.

Another series concerns CVB-3. Kind of series: Anticoxsackieviral HI-HeLa Cell Culture Assay (XTT dye reduction). The settings on record: HI-HeLa cells infected with CVB-3, m.o.i. 0.08, one day. The class given is cell-based, Coxsackie strain B-3 (CVB-3). As for the experimental part:
(§3) Specifically, HI-HeLa cells were infected wtih […] at a multiplicity of infection (m.o.i.) of 0.08 or mock-infected with medium only. Infected or mock-infected cells were resuspended at 8×10^5 cells per mL and incubated with appropriate concentrations of compound. One day later, XTT/PMS were added to test plates and the amount of formazan produced was quantified spectrophotometrically at 450/650 nm. […] The therapeutic index (TI) was calculated by dividing the CC50 by the EC50.
(§4) The Coxsackie strain B-3 (CVB-3) was purchased from American Type Culture Collection (ATCC). Virus stocks were propgated and antiviral assays were performed in Hi-HeLa cells (ATCC). Cells were grown in Minimal Essential Medium with 10% fetal bovine serum.

In series [6] the test system is HI-HeLa cells. Nature of the series: Cytotoxicity in mock-infected HI-HeLa cells (anticoxsackieviral assay, XTT). It counts as cell-based. As to the method:
as §3, with “The ability of compounds to protect calls against CVB-3 infection was measured by the XTT dye reduction method, which is described in Weislow, O. S., R. Kiser, D. L. Fine, J. Bader, R. H. Shoemaker, and M. R. Boyd, 1989, J. Natl. Cancer Inst. 81:577-586, which is incorporated herein by reference. Specifically,” for “Specifically,”
as §4

In series [7] the target is T4, Recombinant Rhinovirus 3C protease (RVP) serotype 16 (Human rhinovirus 16, UniProt Q82122).
T4 construct: Recombinant Rhinovirus 3C proteases from serotypes 14, 16, 2 or 89; made in house
T4 sequence (Q82122 1511-1693): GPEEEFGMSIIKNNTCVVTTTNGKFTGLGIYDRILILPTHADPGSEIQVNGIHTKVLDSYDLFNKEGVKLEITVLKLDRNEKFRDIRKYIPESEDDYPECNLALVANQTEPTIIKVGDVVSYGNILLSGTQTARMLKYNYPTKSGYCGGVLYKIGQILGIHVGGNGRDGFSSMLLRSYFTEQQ
Nature of the series: Inhibition of Rhinovirus Protease (fluorescence resonance energy transfer assay), serotype 16. The settings on record: pH 7.6; RVP serotype 16; progress curves in enzyme start experiments; read-out: kobs/I. It counts as biochemical, human rhinovirus (HRV). As to the method:
as §1, §2

A short description of series [8]: Cytotoxicity in mock-infected HI-HeLa cells (antirhinoviral assay, XTT). It counts as cell-based. The settings on record: human; mock-infected HI-HeLa cells; two days; XTT; read-out: CC50.
Series [9] is described as follows: Cytotoxicity in mock-infected HI-HeLa cells (anticoxsackieviral assay, XTT). The class given is cell-based. The following applies: human; mock-infected HI-HeLa cells; one day; XTT. As for the experimental part:
as §3, with “The ability of compounds to protect calls against CVB-3 infection was measured by the XTT dye reduction method, which is described in Weislow, O. S., R. Kiser, D. L. Fine, J. Bader, R. H. Shoemaker, and M. R. Boyd, 1989, J. Natl. Cancer Inst. 81:577-586, which is incorporated herein by reference. Specifically,” for “Specifically,”
as §4

Setting [10] is: progress curves in enzyme start experiments.
Setting [11] is: pH 7.6, progress curves in enzyme start experiments, read-out: kobs/I.

T1 sequence (P03303 1538-1719): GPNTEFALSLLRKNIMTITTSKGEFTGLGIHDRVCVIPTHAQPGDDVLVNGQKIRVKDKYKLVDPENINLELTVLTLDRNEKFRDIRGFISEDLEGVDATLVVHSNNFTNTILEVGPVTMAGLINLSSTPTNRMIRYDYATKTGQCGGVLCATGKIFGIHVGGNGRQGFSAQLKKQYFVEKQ
T3 sequence (P07210 1522-1704): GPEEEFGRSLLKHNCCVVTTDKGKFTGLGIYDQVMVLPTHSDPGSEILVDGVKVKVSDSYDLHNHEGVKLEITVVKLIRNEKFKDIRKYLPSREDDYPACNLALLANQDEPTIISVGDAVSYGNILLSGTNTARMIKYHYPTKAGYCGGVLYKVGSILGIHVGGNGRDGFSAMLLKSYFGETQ
T2 sequence (P04936 1508-1690): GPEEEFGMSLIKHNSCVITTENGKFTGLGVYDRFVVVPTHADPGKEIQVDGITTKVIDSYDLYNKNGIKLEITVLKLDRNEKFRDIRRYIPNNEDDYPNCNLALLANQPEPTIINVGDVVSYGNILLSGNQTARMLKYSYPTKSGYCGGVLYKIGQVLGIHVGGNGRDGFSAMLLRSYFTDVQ

In general, CC50 refers to the concentration that lowers cell viability or growth by half. `CCOC(=O)/C=C/[C@H](CCC(N)=O)NC(=O)[C@H](Cc1ccccc1)NC(=O)[C@H](CC(C)C)NC(=O)OCc1ccccc1` [Compound 3, Ethyl-3-(CBZ-L-Leu-L-Phe-L-Gln)-E-Propenoate]: in series [1] (RVP serotype-14, 0.1 μM compound, 10 minute preincubation with 50 nM RVP), the “INHIB (percent inhibition)” value is listed as 81(0.1) percent. The kobs/I is listed as 37,000 M-1 sec-1 in series [1] (RVP serotype-14, progress curves in enzyme start experiments); 1,900 M-1 sec-1 in [2] (setting [10]); 3,400 M-1 sec-1 in series [3] (setting [10]). For the same compound, the EC50 in the series on HRV-14 is 0.61 µM; in series [5], 0.04 µM; with CVB-3, 39.8 µM. Besides, the CC50 with HI-HeLa cells [4] and with HI-HeLa cells [6] was more than 320 µM each time.
Usually Ki stands for the dissociation constant of the complex between target and ligand, obtained from inhibition or displacement. With `CC(=O)/C=C/[C@H](CCC(N)=O)NC(=O)[C@H](Cc1ccccc1)NC(=O)[C@H](CC(C)C)NC(=O)OCc1ccccc1` [Compound 13, 4-(CBZ-L-Leu-L-Phe-L-Gln)-E-3-Butene-2-one], the Ki in series [1] came out at 6.5 µM. Further, the kinact/KI was 54000 M⁻¹ s⁻¹ in [1] (pH 7.6, read-out: kobs/I); 9000 M⁻¹ s⁻¹ in series [7]; 2400 M⁻¹ s⁻¹ in [2] (setting [11]); 5500 M⁻¹ s⁻¹ in series [3] (setting [11]). Moreover, the EC50 with HRV-14 (Rhinovirus B, HRV14, 48 h) is 2 µM; in series [5] (Epithelial cell), 0.0004 µM; in the series with CVB-3 (24 h), more than 100 µM. The CC50 at 2 days in series [8] came out at 58.9 µM. Besides, the CC50 at 1 day in series [9] is more than 100 µM.
